Measurements from ChEMBL document CHEMBL1201862, “PubChem BioAssay data set” (2004).
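Interpolation was linear, between the two tested concentrations surrounding the appropriate level; five concentrations were tested over 48 hours in 96-well plates. GI50 marks 50% less growth.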 Calls of active or inactive are those of the source. Cut-off read from the data, not from the text of the source: active = GI50 up to about 1.1 µM and inactive = higher.

Tests used:
Test in all cases: inhibition of tumour cell growth, NCI panel, 48 h
A549 = tested on: A549
BT-549 = tested on: BT-549
CCRF-CEM = tested on: CCRF-CEM
HL-60 = tested on: HL-60
K562 = tested on: K562
LOX IMVI = tested on: LOX IMVI
MDA-MB-435 = tested on: MDA-MB-435
MDA-N = tested on: MDA-N
MOLT-4 = tested on: MOLT-4
NCI-H23 = tested on: NCI-H23
NCI/ADR-RES = tested on: NCI/ADR-RES
OVCAR-3 = tested on: OVCAR-3
OVCAR-8 = tested on: OVCAR-8
RXF 393 = tested on: RXF 393
SF-268 = tested on: SF-268
SK-MEL-5 = tested on: SK-MEL-5
SK-OV-3 = tested on: SK-OV-3
TK-10 = tested on: TK-10
UACC-257 = tested on: UACC-257
UO-31 = tested on: UO-31

Measured: GI50

Cc1cccc(N2C(=O)C3ON(C(C(N)=O)c4ccccc4)C(c4c5ccccc5c(Cl)c5ccccc45)C3C2=O)c1C (stereo not given)
inactive: A549 14.3 µM | BT-549 9.98 µM | CCRF-CEM 2.55 µM | HL-60 4.12 µM | K562 12.7 µM | LOX IMVI 7.1 µM | MDA-MB-435 6.31 µM | MDA-N 3.3 µM | MOLT-4 1.89 µM | NCI-H23 11.6 µM | NCI/ADR-RES 10.9 µM | OVCAR-3 8.43 µM | OVCAR-8 9.84 µM | RXF 393 5.66 µM | SF-268 9.59 µM | SK-MEL-5 7.03 µM | SK-OV-3 18.8 µM | TK-10 11.8 µM | UACC-257 6.87 µM | UO-31 16.4 µM

O=C1c2ccccc2C(=O)[C@@]23O[C@@]12C1(Oc2cccc4cccc(c24)O1)[C@@H]1O[C@@H]1[C@@H]3O
inactive: A549 18.4 µM | BT-549 2.9 µM | CCRF-CEM 1.76 µM | HL-60 1.66 µM | K562 2.23 µM | LOX IMVI 4.22 µM | MDA-MB-435 17.2 µM | MDA-N 9.46 µM | MOLT-4 2.7 µM | NCI-H23 13.6 µM | NCI/ADR-RES 5.05 µM | OVCAR-3 4.65 µM | OVCAR-8 4.71 µM | RXF 393 2.95 µM | SF-268 9.68 µM | SK-MEL-5 24.4 µM | SK-OV-3 15.1 µM | TK-10 11.3 µM | UACC-257 15.8 µM | UO-31 9.18 µM

C[N+](C)(C)CCCSc1nc2ccccc2[nH]1
inactive: A549 > 100 µM | BT-549 > 100 µM | CCRF-CEM > 100 µM | HL-60 > 100 µM | K562 > 100 µM | LOX IMVI > 100 µM | MDA-MB-435 > 100 µM | MDA-N > 100 µM | MOLT-4 > 100 µM | NCI-H23 > 100 µM | NCI/ADR-RES > 100 µM | OVCAR-3 > 100 µM | OVCAR-8 > 100 µM | RXF 393 > 100 µM | SF-268 > 100 µM | SK-MEL-5 > 100 µM | SK-OV-3 > 100 µM | TK-10 > 100 µM | UACC-257 30.1 µM | UO-31 > 100 µM

CC(=O)c1ccc(Nc2c3c(nc4ccccc24)CCCC3)cc1
inactive: A549 19 µM | BT-549 9.79 µM | CCRF-CEM 15.9 µM | HL-60 2.73 µM | K562 16.4 µM | LOX IMVI 10 µM | MDA-MB-435 1.96 µM | MDA-N 2.72 µM | MOLT-4 9.59 µM | NCI-H23 11.3 µM | NCI/ADR-RES 10.4 µM | OVCAR-3 11.5 µM | OVCAR-8 17.7 µM | RXF 393 20.5 µM | SF-268 40.2 µM | SK-MEL-5 14.9 µM | SK-OV-3 26.7 µM | TK-10 42.5 µM | UACC-257 24.5 µM | UO-31 5.58 µM

Cc1cccc2cc3ccc4ccccc4c3cc12
inactive: A549 37.1 µM | BT-549 > 100 µM | CCRF-CEM 20.1 µM | HL-60 24.9 µM | K562 63.1 µM | LOX IMVI 39.4 µM | MDA-MB-435 47.6 µM | MDA-N 38.9 µM | MOLT-4 25.7 µM | NCI-H23 54.5 µM | NCI/ADR-RES > 100 µM | OVCAR-3 63.2 µM | OVCAR-8 > 100 µM | RXF 393 75.2 µM | SF-268 > 100 µM | SK-MEL-5 21.9 µM | SK-OV-3 > 100 µM | TK-10 36.6 µM | UACC-257 20 µM | UO-31 77.8 µM

COc1cccc2c1C(=O)OC2c1cccc2ccccc12 (stereo not given)
inactive: A549 > 100 µM | BT-549 > 100 µM | CCRF-CEM > 100 µM | HL-60 > 46.6 µM | K562 > 100 µM | LOX IMVI > 100 µM | MDA-MB-435 > 100 µM | MDA-N > 100 µM | MOLT-4 > 100 µM | NCI-H23 > 100 µM | NCI/ADR-RES 53.3 µM | OVCAR-3 74.8 µM | OVCAR-8 56.4 µM | RXF 393 31.5 µM | SF-268 72.8 µM | SK-MEL-5 > 100 µM | SK-OV-3 > 73.6 µM | TK-10 > 73.3 µM | UACC-257 > 91 µM | UO-31 > 100 µM

COc1cc([C@H]2CC(=O)C[C@@H](c3cc(OC)c(OC)c(OC)c3)C23C(=O)c2ccccc2C3=O)cc(OC)c1OC
inactive: A549 > 100 µM | BT-549 > 100 µM | CCRF-CEM > 100 µM | HL-60 > 100 µM | K562 > 100 µM | LOX IMVI > 100 µM | MDA-MB-435 > 100 µM | MDA-N > 100 µM | MOLT-4 > 100 µM | NCI-H23 > 100 µM | NCI/ADR-RES > 100 µM | OVCAR-3 > 100 µM | OVCAR-8 > 100 µM | RXF 393 > 100 µM | SF-268 > 100 µM | SK-MEL-5 > 100 µM | SK-OV-3 > 100 µM | TK-10 > 100 µM | UACC-257 > 100 µM | UO-31 > 100 µM
